These results are taken from patent US7214535B2, “Glyphosate-tolerant 5-enolpyruvylshikimate-3-phosphate synthase and the gene encoding the same” (Peking University, priority 2002, dated 2007).

Structures are written as SMILES.

This test has as its system strain 4G-1. Nature of the test: Growth of isolated strain 4G-1 on media comprising glyphosate or Ampicillin. In kind it is cell-based, Pseudomonas putida. As for the experimental part: The sample were taken from neighborhood of a glyphosate producing factory in Hebei Province, China, and were diluted and spread on mediums comprising glyphosate. A total of 48 strains are isolated with high tolerance and degradation ability to glyphosate. One strain of them, 4G-1, is able to grow on a medium with 400 mM glyphosate, and is resistant to 100 mg/L Ampicillin. Said strain is selected for further studies.
The resulting products are purified by a purification method for PCR product, and are ligated to a T vector (Takara, Dalian) according to the instruction of manufacturer Takara to obtain plasmid pKU2000. […] Using BLAST software and BLASTP 2.2.2 [Dec. […] Thus, strain 4G-1 is thought to be P. putida, and is designated as P. putida 4G-1 (abbreviated as P. P4G-1). Said strain is deposited on Apr. 30, 2002 at the Chinese General Microbiological Culture Centre (CGMCC) (ZhongGuan Cun, Beijing, China) with the accession number CGMCC 0739.

`CC1(C)S[C@@H]2[C@H](NC(=O)[C@H](N)c3ccccc3)C(=O)N2[C@H]1C(=O)O` [Ampicillin]: the “resistance of strain 4G-1 to Ampicillin” value (100 mg/L Ampicillin) is given as “resistant”.

For the compound `O=C(O)CNCP(=O)(O)O` [glyphosate, N-phosphylmethyl glycine], under “400 mM glyphosate”, the “growth of strain 4G-1 on medium with glyphosate” value was “able to grow”.
